pEC50: −log10 of the molar value.
What was measured:
[1] = Octanol–water partition, shake-flask method; type: physicochemical; details: 200 μM, n-octanol/water, 2 h mixing, SE in parentheses
Protocol: The shake-flask method was done using 2 mL Eppendorf tubes and three replicates. […] After mixing, aliquots of 500 μL were transferred to new Eppendorf tubes, and 500 μL of n-octanol was added that had been saturated with water. The solvent systems were mixed in a vortex mixer for 2 h, and then both the water and the n-octanol layers as well as the initial water solution were analyzed by UPLC–DAD using the shorter phenyl column (section 2.4). The chromatograms were integrated using TargetLynx software (version 4.2), and the octanol–water partition coefficient, log P, was calculated as the log10 of the ratio of area in n-octanol phase to the area in water phase. Recovery % was calculated by summing the areas in both phases and dividing the summation with the area measured from the initial water phase.

[2] = target: T1, bovine serum albumin (BSA) (Bos taurus, UniProt P02769); test: UPLC–DAD analysis of supernatants from the PPC experiment (proportion of precipitated BSA); type: biochemical; details: highest tested concentration of 2.25 mM (molar ratio to BSA 23:1)
T1 construct: purchased Sigma-Aldrich (MO, USA)
T1 sequence (P02769 25-607): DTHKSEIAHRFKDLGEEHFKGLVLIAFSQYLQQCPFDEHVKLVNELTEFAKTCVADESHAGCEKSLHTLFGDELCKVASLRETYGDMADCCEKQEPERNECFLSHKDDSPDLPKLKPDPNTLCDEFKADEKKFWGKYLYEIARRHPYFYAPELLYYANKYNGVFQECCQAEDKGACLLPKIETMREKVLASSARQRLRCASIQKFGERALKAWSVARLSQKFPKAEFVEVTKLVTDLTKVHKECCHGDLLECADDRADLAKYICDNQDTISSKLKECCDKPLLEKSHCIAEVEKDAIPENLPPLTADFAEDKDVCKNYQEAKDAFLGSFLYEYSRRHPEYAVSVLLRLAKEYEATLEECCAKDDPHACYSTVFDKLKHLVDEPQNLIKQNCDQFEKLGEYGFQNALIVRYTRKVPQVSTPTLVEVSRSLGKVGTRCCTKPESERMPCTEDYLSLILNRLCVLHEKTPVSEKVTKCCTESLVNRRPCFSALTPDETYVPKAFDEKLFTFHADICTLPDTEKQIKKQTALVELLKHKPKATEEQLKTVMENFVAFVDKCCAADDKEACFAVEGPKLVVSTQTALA
Protocol: (§1) PPC was measured by using the turbidimetric well-plate reader assay of Engström et al. (2019), with few modifications to the volumes of the reactants and to the number of replicates, for instance. The analyzes of the supernatants were done following Engström et al. (2022).[21] Briefly, 75 μL of BSA solution and 75 μL of the solutions of compounds 2–14 were pipetted to well plates, and the intensity of the forming haze was measured periodically at 420 nm using a well-plate reader. The PPC of the PC analogue 1 was not measured because it was not soluble in suitable solvents. The reactions were monitored for 30 min, and the highest intensities were recorded. A single background measurement was done at each concentration with all the components in the wells but the BSA. The reactions were done in triplicates (and in duplicates with PC C1), and the concentrations of the compounds 2–14 in the reaction mixtures were 0.25 0.65, 1.05, 1.45, 1.85, and 2.25 mM. The concentration of the BSA was kept constant at 0.1 mM. Therefore, the tested molar ratios to BSA were 2.5:1, 6.5:1, 10.5:1, 14.5:1, 18.5:1, and 22.5:1. After the 30 min, the supernatants and precipitates of the replicates were combined in a 1.5 mL Eppendorf tube and separated by centrifuging. The supernatants were then analyzed by UPLC–DAD using the shorter phenyl column (section 2.4) to quantify the leftover compounds 2–14 and BSA. Leftover BSA was quantified using a separately prepared linear calibration curve (1–125 μM), and the compounds 2–14 were quantified by analyzing the background solutions from the well-plate reader assay and constructing a calibration curve from these analyzes. BSA was quantified at 280 nm and compounds 2–14 at 280–320 nm. The wavelength of maximal UV absorption for compounds 2–14 could not be utilized in quantification because the diode array detector was saturated at the optimal wavelengths due to the high concentrations used in the well-plate reader assay. Therefore, off-optimal wavelengths were chosen for quantification separately for each compound 2–14 to reduce intensities and to obtain linear fits for calibration curves.

[3] = target: T1, bovine serum albumin (BSA); test: Protein precipitation capacity (PPC), turbidimetric well-plate reader assay with BSA, log-normal dose–response model; type: biochemical; details: SE in parentheses
Protocol: as §1
All statistical analyzed were performed with R (version 4.2.2) in the integrated development environment Rstudio (version 2022.12.0.353).[23],[24] The PPC data was fitted with a dose–response model using the package drc.[25] Various models, e.g., logit and log-normal models, were compared using the mselect function, and the best fitting model was chosen based on the Akaike’s information criterion and residual error when comparing all models, and log-likelihood was used when comparing nested models. All compounds were assumed to have the same upper and lower asymptotes; the former was estimated from the experimental data, and the latter was fixed at zero.

[4] = Stability in phosphate buffered saline; type: physicochemical; details: phosphate buffered saline, pH 7.4, PBS pH 7.4, 0.01 M phosphate, 150 μM, first-order kinetics, UV 280 nm; read-out: half-life (t1/2)
Protocol: The stabilities of the compounds were measured in PBS, which was prepared from commercially available tablets that were dissolved in ultrapure water. The phosphate concentration was 0.01 M, the pH was 7.4, and the potassium and sodium chloride concentrations were 0.0027 and 0.137 M, respectively. […] The compounds were dissolved in 2 mL of the PBS solution in Eppendorf tubes, vortexed for approximately 15 min, and filtered through a 0.2 μm PTFE filter to a 2 mL UPLC vial. The solutions were analyzed with the UPLC-DAD-HESI-Orbitrap-MS instrument using the longer phenyl column (section 2.4), and repeated injections were done every 47.5 min for approximately 12 h. […] The UV chromatograms at 280 nm were integrated using the QuanBrowser module in Xcalibur software (version 4.1.31.9), and the main degradation products were identified in QualBrowser by their high-resolution mass spectra and UV spectra. With each compound, the measured areas were transformed to proportional areas by dividing all areas with the initial area in the first injection of the time series, and the data was further loge transformed and fitted with first-order linear regression curves. The regression curves were supplemented with 95% confidence intervals to visualize the uncertainty in the fitted curves. The half-lives were calculated from the slope (k) parameters of the linear regression model using the following equation: [drawing 1]

KOW [1]: 0.07 (0.00)
logP at 2 h ([1]; read-out: log P (log10KOW)): -1.17
proportion of BSA precipitated [2]: almost all
ED90 (mM) ([3]; BSA 0.1 mM): 1.57 (0.06) mM
pEC50 ([3]; concentration giving 50% of maximal absorbance (420 nm haze), BSA 0.1 mM, read-out: ED50 (the source's name)): 3.11
slope ([3]; slope parameter of log-normal dose–response model): 1.79 (0.08)
half-life at 150 μM [4]: 30.9 h
Compound: Oc1cc(O)c2c(c1)O[C@H](c1ccc(O)c(O)c1)[C@H](O)[C@H]2c1c(O)cc(O)c2c1O[C@H](c1ccc(O)c(O)c1)[C@H](O)[C@H]2c1c(O)cc(O)c2c1O[C@H](c1ccc(O)c(O)c1)[C@H](O)C2 [Compound 13, PC C1, reference compound]
